Test system: Staphylococcus aureus (ATCC 6538)
Test: Antimicrobial effectiveness of zinc chloride on Staphylococcus aureus suspension (exposure, neutralization, assay for survivors)
Assay type: cell-based
Details: for CFU/mL of Survivors / Log10 Survivors: 37±1° C.; for Number of Survivors: duplicate plate counts; for Percent Reduction: vs test population control 4.68 × 10^5 CFU/mL; for Log10 Reduction: vs test population control Log10 5.67
Protocol: (§1) A suspension of test organism Staphylococcus aureus (ATCC 6538) was obtained by adding colonies on tryptic soy agar and 5% Sheep Blood (BAP) with incubation parameters of 35° C.-37° C., aerobic in 0.85% saline to match a 3.0 McFarland standard. The suspension was exposed to a test substance of zinc chloride at specified concentrations of 0.1%, 0.3%, and 0.5% from a 1% stock solution at specified exposure times of 10 minutes, 2 hours, 6 hours, and 24 hours at a temperature of 37±1° C. (37.2° C.). Latheen broth and 1% sodium bicarbonate (9.9 mL) were used as a neutralizer. After exposure, an aliquot of the suspension was transferred to the neutralizer and was assayed for survivors.
as §1

[1] = exposure 10 minutes, dilution (volume plated) 10^0 (0.100 mL)
[2] = exposure 10 minutes, dilution (volume plated) 10^0 (1.00 mL)

SMILES | CFU/mL of Survivors (exposure 10 minutes) | Log10 Survivors (exposure 10 minutes) | Number of Survivors [1] | Number of Survivors [2] | Number of Survivors (exposure 10 minutes, dilution (volume plated) 10^1 (0.100 mL)) | Percent Reduction (exposure 10 minutes) | Log10 Reduction (exposure 10 minutes) | CFU/mL of Survivors (exposure 2 hours) | Log10 Survivors (exposure 2 hours) | Percent Reduction (exposure 2 hours) [%] | Log10 Reduction (exposure 2 hours) | CFU/mL of Survivors (exposure 6 hours) | Log10 Survivors (exposure 6 hours) | Percent Reduction (exposure 6 hours) [%] | Log10 Reduction (exposure 6 hours) | CFU/mL of Survivors (exposure 24 hours) | Log10 Survivors (exposure 24 hours) | Percent Reduction (exposure 24 hours) [%] | Log10 Reduction (exposure 24 hours)
[Cl-].[Cl-].[Zn+2] [0.1% Zinc Chloride, zinc chloride] | 6.8 × 10^5 CFU/mL | 5.83 | T, T | T, T | T, T | None | None | 4.9 × 10^2 CFU/mL | 2.69 | >99.8 | 2.98 | 2.3 × 10^2 CFU/mL | 2.36 | >99.9 | 3.31 | 4 × 10^1 CFU/mL | 1.60 | 99.99 | 4.07
[Cl-].[Cl-].[Zn+2] [0.3% Zinc Chloride, zinc chloride] | 5.9 × 10^4 CFU/mL | 4.77 | T, T | T, T |  | 87.4% | 0.90 | 1 × 10^1 CFU/mL | 1.00 | >99.99 | 4.67 | <5 CFU/mL | <0.70 | >99.99 | >4.97 | <5 CFU/mL | <0.70 | >99.99 | >4.97
[Cl-].[Cl-].[Zn+2] [0.5% Zinc Chloride, zinc chloride] | 2.9 × 10^4 CFU/mL | 4.46 | T, T | T, T |  | 93.8% | 1.21 | 1 × 10^1 CFU/mL | 1.00 | >99.99 | 4.67 | <5 CFU/mL | <0.70 | >99.99 | >4.97 | <5 CFU/mL | <0.70 | >99.99 | >4.97
